Source: US20240217988A1, “ESTROGEN RECEPTOR ANTAGONIST” (Shenzhen Forward Pharmaceuticals Co., Limited, priority 2021, published 2024)

Columns and labels:
[1] = system: Human breast cancer cells MCF-7; test: MCF-7 cell proliferation experiment; type: cell-based; details: MCF-7 cells, 72 hours, Cell Titer-Glo
Protocol: Test Example 2: MCF-7 Cell Proliferation Experiment
Human breast cancer cells MCF-7 (HTB-22, purchased from ATCC) were inoculated into a 96-well plate. The culture medium was an MEM (Hyclone, SH30024.01B) culture medium containing 10% of FBS (Gibco, 10099-141), 1% of pyruvic acid (Sigma, S8636), and 1% of nonessential amino acid (Sigma, M7145), and the inoculation density was 4,000 cells/well. The cells were cultured at 37° C., 5% CO2. The compound was prepared into a 20 mM stock solution, which was subjected to gradient dilution to a final concentration of […] with 100% DMSO (Sigma, D2650) and then diluted 20 folds with a culture medium containing 2% of FBS. After 24 hours of culture, the culture medium was removed, 90 μL of a culture medium containing 2% of FBS and 10 μL of drug were added to each well, while 10 μL of DMSO was added to the control group, and they were gently shaken and mixed. The blank group only contained 100 μL of 2% FBS culture medium. They were placed in an incubator and cultured at 37° C., 5% CO2. After 72 hours, 50 μL of mixed Cell Titer-Glo (Promega, G7571) was added. They were shaken and mixed uniformly, and placed at room temperature for 10 min. The chemiluminescence signal value was determined. The negative control was 0.5% DMSO well.

[2] = Stability in human liver microsomes in vitro; type: in vitro ADME; details: for microsomal CLint: read-out: CLint(mic)
Protocol: Test Example 4: Test for Stability in Human Liver Microsomes In Vitro Eight 96-well incubation plates were prepared and named [NT], Blank60 and NCF60, respectively. […] No test compound or control compound was added to Blank60 plate, and samples were taken after incubation for 60 min. NCF60 plate was incubated with a potassium phosphate buffer instead of an NADPH regeneration system solution (Sigma, N0505) for 60 min. […] Only the microsome working solution was added to Blank60 plate, and the incubation plates Blank60, T5, T15, T30, T45 and T60 except T0 and NCF60 were then placed in a water bath at 37° C. and pre-incubated for about 10 min. To the samples of T0 plate, 600 μL of a stop solution (acetonitrile:methanol (95:5, v/v) solution containing 100 ng/mL of tolbutamide (Sigma, T0891)) was added first, and the NADPH regeneration system working solution was then added. 98 μL of a potassium phosphate buffer was added to each well of NCF60 plate and incubated for 60 min. After the pre-incubation in the incubation plates Blank60, T5, T15, T30, T45 and T60 was completed, 98 μL of the NADPH regeneration system working solution was added to each sample well to initiate the reaction. After an appropriate incubation time (such as 5, 15, 30, 45 and 60 min), 600 μL of a stop solution was added to each sample well and the control sample well in Blank60, […] the reaction. All the sample plates were shaken uniformly and centrifuged at 3220×g for 20 min. 200 μL of test sample supernatant was separately taken and diluted in 200 μL of an aqueous solution containing 0.3% formic acid for LC-MS/MS analysis, and 100 μL of control sample supernatant was taken and diluted in 300 μL of pure water for LC-MS/MS analysis. Calculation was performed according to the following formula: [formula] [formula] [formula] [formula] [formula] [formula]

ERα = ERα (Homo sapiens (Human), UniProt P03372); test: Degradation effect of compound on ERα (ERα DuoSet IC ELISA in MCF-7 cells); type: cell-based; details: 24 h with compound; for DC50: read-out: IC50 value of ERα degradation by compound
Sequence of ERα (P03372 whole entry): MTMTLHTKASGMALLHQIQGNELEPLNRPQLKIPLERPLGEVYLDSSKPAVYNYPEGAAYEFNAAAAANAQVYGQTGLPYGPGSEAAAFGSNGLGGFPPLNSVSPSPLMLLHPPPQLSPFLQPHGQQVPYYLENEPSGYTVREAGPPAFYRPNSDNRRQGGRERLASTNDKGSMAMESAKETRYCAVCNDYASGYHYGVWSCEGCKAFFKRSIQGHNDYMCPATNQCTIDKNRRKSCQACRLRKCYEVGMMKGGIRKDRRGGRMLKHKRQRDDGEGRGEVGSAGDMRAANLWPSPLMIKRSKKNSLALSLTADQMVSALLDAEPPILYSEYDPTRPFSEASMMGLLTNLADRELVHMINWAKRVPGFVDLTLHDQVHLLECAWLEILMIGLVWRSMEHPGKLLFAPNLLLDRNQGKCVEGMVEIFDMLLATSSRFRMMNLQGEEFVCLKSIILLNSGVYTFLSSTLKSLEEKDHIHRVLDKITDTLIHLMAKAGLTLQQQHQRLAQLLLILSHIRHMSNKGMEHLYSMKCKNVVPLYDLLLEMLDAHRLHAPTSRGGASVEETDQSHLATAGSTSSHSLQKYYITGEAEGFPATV
Protocol: In this test example, ERα DuoSet IC ELISA Kit (R&D, DYC5715) was used to detect the degradation effect of the compound on ERα. On the first day of the experiment, human breast cancer cells MCF-7 (the source was as above) were inoculated into a 24-well plate. The culture medium was an MEM culture medium containing 10% of activated-carbon-treated FBS (Tocyto, UT61204), 1% of pyruvic acid and 1% of nonessential amino acid. The inoculation density was 150,000 cells/well. The cells were cultured at 37° C., 5% CO2 for 24 h.
On the second day of the experiment, the compound to be tested was diluted in gradient and added to a 24-well plate containing cells. The cells were cultured for 24 h at 37° C., 5% CO2. ERα capture antibody was diluted to 1 μg/ml with PBS (Corning, 21-040-CVR) and added to a 96-well plate at 100 μL/well, and the plate was […] coated overnight at room temperature.
On the third day of the experiment, the coated 96-well plate was washed three times with PBS, 300 μL of a blocking solution (R&D, DY995) was added to each well, and the plate was blocked at room temperature for 1 h. The 24-well plate was washed once with PBS, and the residual liquid was sucked off. […] The diluted cell lysate was taken and added to the blocked 96-well plate, with 100 μL per well, and incubated at room temperature for 2 h. The plate was washed three times with a washing solution (R&D, WA126), and a primary antibody was then added. After incubation for 1 h, the 96-well plate was washed four times, a secondary antibody was added, and incubation was carried out at room temperature in the dark for 30 min. The plate was washed four times with the washing solution, and TMB (R&D, DY999) was added. After 15 minutes of development, the reaction was terminated with a stop solution (R&D, DY994), and the light absorption at 450 nm was read.

[3] = human liver microsomes, microsome protein 1 mg/mL working solution, NADPH
[4] = human liver microsomes, scaled to liver

Work on `C[C@@H]1Cc2c([nH]c3ccccc23)[C@@H](c2c(F)cc(/C=C/C(=O)O)cc2F)N1CC(C)(C)F` [AZD9496, reference compound] yielded an IC50 ([1]; Homo sapiens, MCF7) of 3840 pM.

Molecule `C[C@@H]1Cc2c(ccc3[nH]ncc23)[C@@H](c2ccc(NC3CN(CCCF)C3)cn2)N1CC(F)(F)F` [AZD9833, reference compound] has an IC50 ([1]; Homo sapiens, MCF7) of 2450 pM, a half-life [2, 3] of 1.33 h and a CLint scaled [2, 4] of 15.6 mL/min/kg. For the same molecule, the microsomal CLint ([2]; human liver microsomes) was 17.3 µL/min/mg.

For `C[C@@H]1Cc2c(ccc3[nH]ncc23)[C@@H](c2c(F)cc(OCCN3CC(CF)C3)cc2F)N1CC(C)(C)F` [Comparative Compound 1, (6S,8R)-6-(2,6-difluoro-4-(2-(3-(fluoromethyl)azetidin-1-yl)ethoxy)phenyl)-7-(2-fluoro-2-methylpropyl)-8-methyl-6,7,8,9-tetrahydro-3H-benzopyrazolo[4,3-f]isoquinoline, reference compound], the IC50 [1] was 2680 pM, the IC50 (ERα) was 1890 pM and the “T1/2” value [2, 3] was 0.703 h. For the same molecule, the “CLint(liver)” value [2, 4] was 29.6 mL/min/kg and the “CLint(mic)” value ([2]; human, microsomes) was 32.9 µL/min/mg.

In the case of `C[C@@H]1Cc2c(ccc3[nH]c(=O)oc23)[C@@H](c2ccc(NC3CN(CCCF)C3)cn2)N1CC(F)(F)F` [Example 5, (6S,8R)-6-(5-((1-(3-fluoropropane)azetidin-3-yl)amino)pyridin-2-yl)-8-methyl-7-(2,2,2-trifluoroethyl)-6,7,8,9-tetrahydrooxazolo[5,4-f]isoquinolin-2(3H)-one], the half-life [2, 3] is reported as 1.26 h, the CLint scaled [2, 4] is reported as 16.5 mL/min/kg and the microsomal CLint ([2]; human liver microsomes) is reported as 18.4 µL/min/mg.

In the case of `C[C@@H]1Cc2c(ccc3[nH]c(=O)oc23)[C@@H](c2c(F)cc(N3CC4(CN(CCF)C4)C3)cc2F)N1CC(F)(F)F` [Example 8, (6S,8R)-6-(2,6-difluoro-4-(6-(2-fluoroethyl)-2,6-diazspiro[3.3]hept-2-yl)phenyl)-8-methyl-7-(2,2,2-trifluoroethyl)-6,7,8,9-tetrahydrooxazolo[5,4-f]isoquinolin-2(3H)-one], the half-life [2, 3] is reported as 1.43 h, the CLint scaled [2, 4] is reported as 14.5 mL/min/kg and the microsomal CLint ([2]; human liver microsomes) is reported as 16.1 µL/min/mg.

Molecule `C[C@@H]1Cc2c(ccc3[nH]c(=O)oc23)[C@@H](c2c(F)cc(O[C@H]3CCN(CCCF)C3)cc2F)N1CC(F)(F)F` [Example 11] has an IC50 ([1]; Homo sapiens, MCF7) of 380 pM and a DC50 (ERα) of 620 pM.

`C[C@@H]1Cc2c(ccc3[nH]c(=O)oc23)[C@@H](c2c(F)cc(O[C@H]3CCN(CCCF)C3)cc2F)N1CC(F)(F)CO` [Example 13, (6S,8R)-7-(2,2-difluoro-3-hydroxypropyl)-6-(2,6-difluoro-4-(((S)-1-(3-fluoropropane)pyrrolidin-3-yl)oxy)phenyl)-8-methyl-6,7,8,9-tetrahydrooxazolo[5,4-f]isoquinolin-2(3H)-one] gave an IC50 ([1]; Homo sapiens, MCF7) of 300 pM and a DC50 (ERα) of 230 pM.

For `C[C@@H]1Cc2c(ccc3[nH]c(=O)oc23)[C@@H](c2c(F)cc(OCCNC/C=C/C(=O)N(C)C)cc2F)N1CC(F)(F)F` [Example 16, (E)-4-((2-(3,5-difluoro-4-((6S,8R)-8-methyl-2-oxy-7-(2,2,2-trifluoroethyl)-2,3,6,7,8,9-hexahydrooxazolo[5,4-f]isoquinolin-6-yl)phenoxy)ethyl)amino)-N,N-dimethylbut-2-enamide], the IC50 ([1]; Homo sapiens, MCF7) was 800 pM.

With `C[C@@H]1Cc2c(ccc3[nH]c(=O)oc23)[C@@H](c2ncc(NC3CN(CCCF)C3)cc2F)N1CC(F)(F)F` [Example 27, (6S,8R)-6-(3-fluoro-5-((1-(3-fluoropropyl)azetidin-3-yl)amino)pyridin-2-yl)-8-methyl-7-(2,2,2-trifluoromethyl)-6,7,8,9-tetrahydroxazolo[5,4-f]isoquinolin-2(3H)-one] the IC50 ([1]; Homo sapiens, MCF7) was 1630 pM.

For `COc1cc(NC2CN(CCCF)C2)cnc1[C@@H]1c2ccc3[nH]c(=O)oc3c2C[C@@H](C)N1CC(F)(F)F` [Example 28, (6S,8R)-6-(5-((1-(3-fluoropropyl)azetidin-3-yl)amino)-3-methoxypyridin-2-yl)-8-methyl-7-(2,2,2-trifluoroethyl)-6,7,8,9-tetrahydroxazolo[5,4-f]isoquinolin-2(3H)-one], the IC50 ([1]; Homo sapiens, MCF7) was 400 pM.

`C[C@@H]1Cc2c(ccc3[nH]c(=O)oc23)[C@@H](c2ccc(O[C@H]3CCN(CCCF)C3)cn2)N1CC(F)(F)F` [Example 29, (6S,8R)-6-(5-(((S)-1-(3-fluoropropane)pyrrolidin-3-yl)oxy)pyridin-2-yl)-8-methyl-7-(2,2,2-trifluoroethyl)-6,7,8,9-tetrahydrooxazolo[5,4-f]isoquinolin-2(3H)-one] gave an IC50 ([1]; Homo sapiens, MCF7) of 710 pM.

Molecule `C[C@@H]1Cc2c(ccc3[nH]c(=O)oc23)[C@@H](c2c(F)cc(NC3CN(C/C=C/C(=O)N(C)C)C3)cc2F)N1CC(F)(F)F` [Example 35, (E)-4-(3-((3,5-difluoro-4-((6S,8R)-8-methyl-2-oxo-7-(2,2,2-trifluoroethyl)-2,3,6,7,8,9-hexahydrooxazolo[5,4-f]isoquinolin-6-yl)phenyl)amino)azetidin-1-yl)-N,N-dimethylbut-2-enamide] has an IC50 ([1]; Homo sapiens, MCF7) of 820 pM.

For `C[C@@H]1Cc2c(ccc3[nH]c(=O)oc23)[C@@H](c2c(F)cc(O[C@@H]3CCN(C/C=C/C(=O)N(C)C)C3)cc2F)N1CC(F)(F)F` [Example 37], the IC50 ([1]; Homo sapiens, MCF7) was 610 pM.

`C[C@@H]1Cc2c(ccc3[nH]c(=O)oc23)[C@@H](c2ccc(OCCCN3CCN(CCNc4cccc5c4CN(C4CCC(=O)NC4=O)C5=O)CC3)cn2)N1CC(F)(F)F` (stereo partly drawn) [Example 43, 3-(4-((2-(4-(3-((6-((6S,8R)-8-methyl-2-oxo-7-(2,2,2-trifluoroethyl)-2,3,6,7,8,9-hexahydrooxazolo[5,4-f]isoquinolin-6-yl)pyridin-3-yl)oxy)propyl)piperazin-1-yl)ethyl)amino)-1-oxoisoindolin-2-yl)piperidine-2,6-dione] showed an IC50 ([1]; Homo sapiens, MCF7) of 690 pM and a DC50 (ERα) of 630 pM.

For “(E)-4-((S)-3-((3,5-difluoro4-((6S,8R)-8-methyl-2-oxo-7-(2,2,2-trifluoroethyl)-2,3,6,7, 8,9-hexahydrooxazolo[5,4-f]isoquinolin-6-yl)phenoxy)pyrrolidin-1-yl)-N,N-dimethylbut-2-enamide [Example 39]”, the IC50 [1] was 490 pM.
